{"source": "patent EP0863769B1", "about": "(priority 1996, dated 1998)", "key": {"A/NIB/3/90 M": {"molecular_target": "A/NIB/3/90 M", "format": "binding, Influenza Viren", "conditions": "read-out: Affinität der Bindung an Virus, Kaff"}, "B/England/222/82 M": {"molecular_target": "B/England/222/82 M", "format": "binding, Influenza Viren", "conditions": "read-out: Affinität der Bindung an Virus, Kaff"}, "A/NIB/23/89 M": {"molecular_target": "A/NIB/23/89 M", "format": "binding, Influenza Viren", "conditions": "read-out: Affinität der Bindung an Virus, Kaff"}, "B/NIB/15/89 M": {"molecular_target": "B/NIB/15/89 M", "format": "binding, Influenza Viren", "conditions": "read-out: Affinität der Bindung an Virus, Kaff"}, "A/NIB/47/89 M": {"molecular_target": "A/NIB/47/89 M", "format": "binding, Influenza Viren", "conditions": "read-out: Affinität der Bindung an Virus, Kaff"}, "B/NIB/48/90 M": {"molecular_target": "B/NIB/48/90 M", "format": "binding, Influenza Viren", "conditions": "read-out: Affinität der Bindung an Virus, Kaff"}, "A/England/157/83 M": {"molecular_target": "A/England/157/83 M", "format": "binding, Influenza Viren", "conditions": "read-out: Affinität der Bindung an Virus, Kaff"}, "A/NIB/44/90 M": {"molecular_target": "A/NIB/44/90 M", "format": "binding, Influenza Viren", "conditions": "read-out: Affinität der Bindung an Virus, Kaff"}, "[1]": {"test_system": "menschlicher Influenza Viren der Typen A und B", "format": "binding"}, "A/NIB/50/89 M": {"molecular_target": "A/NIB/50/89 M", "format": "binding, Influenza Viren", "conditions": "read-out: Affinität der Bindung an Virus, Kaff"}, "A/NIB/12/89 M": {"molecular_target": "A/NIB/12/89 M", "format": "binding, Influenza Viren", "conditions": "read-out: Affinität der Bindung an Virus, Kaff"}}, "data": [{"substance": "Poly-N-(2-Hydroxyethyl)-acrylamid mit 20% mol. 6SLN [6SLN-PAA]", "values": [{"measurement": "Kd", "setting": "A/NIB/3/90 M", "value": 0.01, "unit": "µM"}, {"measurement": "Kd", "setting": "B/England/222/82 M", "value": 0.04, "unit": "µM"}, {"measurement": "Kd", "setting": "A/NIB/23/89 M", "value": 0.02, "unit": "µM"}, {"measurement": "Kd", "setting": "B/NIB/15/89 M", "value": 0.02, "unit": "µM"}, {"measurement": "Kd", "setting": "A/NIB/47/89 M", "value": 0.01, "unit": "µM"}, {"measurement": "Kd", "setting": "B/NIB/48/90 M", "value": 0.04, "unit": "µM"}, {"measurement": "Kd", "setting": "A/England/157/83 M", "value": 0.03, "unit": "µM"}, {"measurement": "Kd", "setting": "A/NIB/44/90 M", "value": 0.01, "unit": "µM"}, {"measurement": "Inhibition der viralen Zelladhäsion", "setting": "[1]", "value": "hervoragender Inhibitor aller authentischer Influenza Stämme"}, {"measurement": "Kd", "setting": "A/NIB/50/89 M", "value": 0.02, "unit": "µM"}, {"measurement": "Kd", "setting": "A/NIB/12/89 M", "value": 0.1, "unit": "µM"}]}]}
